Values after ≈ are worked out from the molar mass of the structure shown.
Legend:
Aspergillus niger = assay: Agar well inhibition zone test against fungi, Aspergillus niger (Table II); conditions: quantity per well giving inhibition zone (500, 50, 5 μg tested); Sabouraud agar, 28°, 48 hours
C. albicans [1] = assay: Minimum inhibitory concentration for fungi in presence of serum, C. albicans (Table VI); assay type: cell-based; conditions: Candida albicans; Sabouraud nutrient broth + 10% bovine serum, 28°C, 48 hours
Staph. aureus = assay: Minimum inhibitory concentration for bacteria, tube dilution, Staph. aureus (Table V); conditions: Staphylococcus aureus, 48 h, read-out: Minimum Inhibitory Concentration, Staph. aureus
Procedure: A tube dilution series of the respective compound in nutrient broth whose individual tubes contained concentrations of 1024 μg, 512 μg, 256 μg, 128 μg, 64 μg, 32 μg, 1 μg, 8 μg, 4 μg, 2 μg, 1.1 μg and 0.5 μg/ml was prepared and inoculated with a photometrically standardized suspension of the test organisms.

[2] = system: Mycobacterium tuberculosis II 37 RV (typus humanus); assay: Efficacy against Mycobacteria, Tb-broth dilution series (Table I); assay type: cell-based; conditions: 504 h, Dubos Tb-broth + 10% bovine serum, 21 days, read-out: Minimum Inhibitory Concentration
Escherichia coli = assay: Agar well inhibition zone test against bacteria, Escherichia coli (Table III); conditions: quantity per well giving inhibition zone (500, 50, 5 μg tested); nutrient agar, 37°, 24 hours
Solubility in water = assay type: physicochemical; conditions: hydrochlorides or oxalates, read-out: solubilities (in water)
Procedure: The following list contains examples of those compounds which are made according to the methods disclosed. (The individual compounds are identified by elementary analyses and infrared spectra, by ultra-violet or nuclear resonance spectra, if necessary.) Individual melting points and solubilities (in water) are also given as is the method by which each compound is prepared.
The melting points and solubilities are given for the Hydrochlorides I - XVI; XVIII - XXVII; XXIX - XXXV; XXXVII - XLII; XLIV - LXII; LXIV - LXVII, and the Oxalates XVII; […]; XXXVI; LXIII.

C. albicans [3] = assay: Minimum inhibitory concentration for fungi, tube dilution, C. albicans (Table IV); conditions: Candida albicans, 48 h, read-out: Minimum Inhibitory Concentration, C. albicans
Procedure: (§1) A tube dilution series of the respective compound in Sabouraud nutrient broth, whose individual tubes contained concentrations of 1024 μg, 512 μg, 256 μg, 128 μg, 64 μg, 32 μg, 16 μg, 8 μg, 4 μg, 2 μg, 1.1 μg and 0.5 μg/ml, was prepared and inoculated with a photometrically standardized suspension of the test organisms or the spores thereof.

Staphylococcus aureus = assay: Agar well inhibition zone test against bacteria, Staphylococcus aureus (Table III); conditions: quantity per well giving inhibition zone (500, 50, 5 μg tested); nutrient agar, 37°, 24 hours
Procedure: The efficacy of the compounds against bacteria was tested as follows:
The test organisms, in this case Staphylococcus aureus and Escherichia coli, were inoculated on nutrient agar as described in Example 12, wells were punched, and the solutions of the compounds were transferred to fill the wells. The quantity of compound in the wells amounted again to 500 μg, 50 μg and 5 μg.
After incubation a 37° for 24 hours the quantity of compound was determined at which an inhibition of the organism's growth, in the form of an inhibition zone around the corresponding well, occurred.

Candida albicans = assay: Agar well inhibition zone test against fungi, Candida albicans (Table II); conditions: quantity per well giving inhibition zone (500, 50, 5 μg tested); Sabouraud agar, 28°, 48 hours
A. niger [4] = assay: Minimum inhibitory concentration for fungi, tube dilution, A. niger (Table IV); conditions: Aspergillus niger, 48 h, read-out: Minimum Inhibitory Concentration, A. niger
Procedure: as §1

A. niger [5] = assay: Minimum inhibitory concentration for fungi in presence of serum, A. niger (Table VI); assay type: cell-based; conditions: Aspergillus niger; Sabouraud nutrient broth + 10% bovine serum, 28°C, 48 hours

Compound	Inhibition Area at μg, Asp. niger (Aspergillus niger)	MIC (C. albicans [1])	MIC (Staph. aureus)	MIC [2]	Inhibition Area at μg, E. coli (Escherichia coli)	solubility (Solubility in water)	MIC (C. albicans [3])	Inhibition Area at μg, Staph. aureus (Staphylococcus aureus)	Inhibition Area at μg, Cand. albicans (Candida albicans)	MIC (A. niger [4])	MIC (A. niger [5])
CC1CCCN(CCN2CCN(C(C)C(O)(Cc3ccccc3)Cc3ccccc3)CC2)C1 (stereo not drawn) [VIII, 1-phenyl-2-benzyl-3-{4'-[β-(3"-methyl-piperidino)-ethyl]-piperazino-1'}butanol-2]	500 µg	16 µg/mL	512 µg/mL (≈ 1140 µM)	100 µg/mL	> 500 µg	50 mg/mL (≈ 111000 µM)	16 µg/mL (≈ 35.6 µM)	50 µg	50 µg	–	–
CC(N1CCN(CCN2CCN(Cc3ccccc3)CC2)CC1)C(O)(Cc1ccccc1)Cc1ccccc1 (stereo not drawn) [XII, 1-phenyl-2-benzyl-3-{4'-[β-(4"-benzyl-piperazino-1")-ethyl]-piperazino-1'}-butanol-2]	50 µg	256 µg/mL	64 µg/mL (≈ 121 µM)	100 µg/mL	500 µg	100 mg/mL (≈ 190000 µM)	64 µg/mL (≈ 121 µM)	50 µg	5 µg	16 µg/mL (≈ 30.4 µM)	> 1020 µg/mL
CC(N1CCN(CCCN2CCCCC2)CC1)C(O)(Cc1ccccc1)Cc1ccccc1 (centres unmarked) [XIX, 1-phenyl-2-benzyl-3-[4'-(γ-piperidinopropyl)-piperazino-1']-butanol-2]	5 µg	16 µg/mL	–	100 µg/mL	500 µg	100 mg/mL (≈ 222000 µM)	16 µg/mL (≈ 35.6 µM)	500 µg	5 µg	32 µg/mL (≈ 71.2 µM)	32 µg/mL
CC(N1CCN(Cc2ccccn2)CC1)C(O)(Cc1ccccc1)Cc1ccccc1 (centres unmarked) [XXII, 1-phenyl-2-benzyl-3-[4'-(2"-pyridylmethyl)-piperazino-1']-butanol-2]	500 µg	512 µg/mL	> 1020 µg/mL	500 µg/mL	> 500 µg	50 mg/mL (≈ 120000 µM)	–	50 µg	500 µg	–	–
CC(C(=Cc1ccccc1)Cc1ccccc1)N1CCN(CCN2CCCC2)CC1 (stereo not drawn) [XXIX, 1-phenyl-2-benzyl-3-[4'-(β-pyrrolidino-ethyl)-piperazino-1']-butene-1]	50 µg	128 µg/mL	128 µg/mL (≈ 317 µM)	10 µg/mL	500 µg	100 mg/mL (≈ 248000 µM)	8 µg/mL (≈ 19.8 µM)	50 µg	50 µg	16 µg/mL (≈ 39.6 µM)	32 µg/mL
CCN(CC)CCN1CCN(C(C)C(=Cc2ccccc2)Cc2ccccc2)CC1 (stereo not drawn) [XXVII, 1-phenyl-2-benzyl-3-[4'-(β-diethylamino-ethyl)-piperazino-1']-butene-1]	5 µg	–	256 µg/mL (≈ 631 µM)	10 µg/mL	500 µg	100 mg/mL (≈ 247000 µM)	256 µg/mL (≈ 631 µM)	50 µg	5 µg	128 µg/mL (≈ 316 µM)	–
CC(C(=Cc1ccccc1)Cc1ccccc1)N1CCN(CCN2CCCCC2)CC1 (stereo not drawn) [XXX, 1-phenyl-2-benzyl-3-[4'-(β-piperidino-ethyl)-piperazino-1']-butene-1]	5 µg	256 µg/mL	128 µg/mL (≈ 306 µM)	50 µg/mL	500 µg	10 mg/mL (≈ 23900 µM)	16 µg/mL (≈ 38.3 µM)	50 µg	50 µg	32 µg/mL (≈ 76.6 µM)	32 µg/mL
CC1CN(CCN2CCN(C(C)C(=Cc3ccccc3)Cc3ccccc3)CC2)CCO1 (stereo not drawn) [XXXII, 1-phenyl-2-benzyl-3-{4'-[β-(2-methylmorpholino)-ethyl]-piperazino-1'}-butene-1]	50 µg	–	128 µg/mL (≈ 295 µM)	50 µg/mL	> 500 µg	100 mg/mL (≈ 231000 µM)	–	50 µg	500 µg	128 µg/mL (≈ 295 µM)	–
CC1CCCCN1CCN1CCN(C(C)C(=Cc2ccccc2)Cc2ccccc2)CC1 (stereo not drawn) [XXXIII, 1-phenyl-2-benzyl-3-[4'-(β-2"-methyl-piperidinoethyl)-piperazino-1']-butene-1]	50 µg	–	128 µg/mL (≈ 297 µM)	20 µg/mL	500 µg	100 mg/mL (≈ 232000 µM)	256 µg/mL (≈ 593 µM)	50 µg	5 µg	256 µg/mL (≈ 593 µM)	–
